Experimental data from US20040086901A1, “Database for analyzing gene function and method of analyzing gene function by dspa” (priority 2000, published 2004).

Assays:
Format in all cases: cell-based, mouse
[1] = tested on: NIH3T3 cells overexpressing Ha-ras; assay: MTT cell viability, drug sensitivity of Ha-ras overexpressing cells vs parental line; settings: Ha-ras high-expressing cells / parental cell line, 3 to 4 days
Protocol: (§1) With regard to the function-known genes, the genes shown in the left column of Table 2 were used. With regard to the drugs, those shown in Table 1 were dissolved in DMSO to an extent of 100-fold of the maximum concentration for the search of the drugs and used. With regard to the cells, incubated NIH3T3 or ras-NIH3T3 cells were used.
(§2) Full-length cDNA of each function-known genes was incorporated into an expression vector (pRc-CMV, etc.) and transfected into NIH3T3 cells by a common method. Transformed cells were isolated using the resistance to G-418 as an index and the expression of the transfected gene in each cell was investigated by Western blotting method to select a highly expressing line.
(§3) Cell viabilities were measured according to the following procedures.
(§4) 1) From the 2nd to the 11th rows of a 96-well plate were filled with DMEM (50 μl). The 12th row was filled with 100 μl of DMEM.
(§5) 2) The 1st row was filled with 98 μl of DMEM.
(§6) 3) Drugs (2 μl each) were added into the 1st row.
(§7) 4) Continuous double-dilution was conducted from the 1st to the 9th rows. Fifty μl were taken out from the 9th row and discarded. The plate was preserved in a CO2 incubator.
(§8) 5) Cells (each high-expressing cells and the parental cell line) were detached from the medium using a trypsin solution, suspended in 10% CS-DMEM and transferred to a test tube and cell numbers (cell/ml) were counted.
(§9) 6) The cells were diluted to a concentration of 1×10^5 cells/ml, and 50 μl of the cell suspension were added to the 1st to the 11th rows of the plate followed by gently stirring.
(§10) 7) The plate was transferred to the CO2 incubator and incubated for 3 to 4 days.
(§11) 8) MTT (5 mg/ml in PBS) (10 μl) was added to the 1st to the 12th rows of the plate and incubated in the CO2 incubator at 37° C. for 4 hours.
(§12) 9) A reaction stop solution (0.04N HCl in isopropanol) (150 μl) was added followed by mixing well and being allowed to stand at room temperature for about 2 hours.
(§13) 10) Coloration of formazan which was a metabolite of the MTT dye was measured using a microplate reader. The measurement wavelength was 574 nm and the reference wavelength was 655 nm. The 10th and the 11th rows of the plate were 100% controls and the 12th row was a 0% control.
(§14) As an index for the sensitivity of highly gene-expressing cells and the parental cell line to various drugs, each of the IC40 values thereof was specified and ratios of the IC40 values were calculated. […] After that, logarithmic values of ratios of IC40 values were calculated from each gene.

[2] = tested on: NIH3T3 cells overexpressing p33/ING1; assay: MTT cell viability, p33/ING1 overexpressing cells vs parental line; settings: p33/ING1 high-expressing cells / parental cell line, 3 to 4 days
Protocol: as §1, §2, §3, §4, §5, §6, §7, §8, §9, §10, §11, §12, §13
(§15) As an index for the sensitivity of highly gene-expressing cells and the parental cell line to various drugs, each of the IC40 values thereof was specified and ratios of the IC40 values were calculated. FIG. 2 and FIG. 3 are the examples where ratios of IC40 values were calculated from a curve showing the dependency on the concentration of the chemical versus the viability. After that, logarithmic values of ratios of IC40 values were calculated from each gene.

[3] = tested on: NIH3T3 cells overexpressing STAT1; assay: MTT cell viability, STAT1 overexpressing cells vs parental line; settings: STAT1 high-expressing cells / parental cell line, 3 to 4 days
Protocol: as §1, §2, §3, §4, §5, §6, §7, §8, §9, §10, §11, §12, §13, §14

[4] = tested on: NIH3T3 cells overexpressing Ki-ras; assay: MTT cell viability, Ki-ras overexpressing cells vs parental line; settings: Ki-ras high-expressing cells / parental cell line, 3 to 4 days
Protocol: as §1, §2, §3, §4, §5, §6, §7, §8, §9, §10, §11, §12, §13, §15

[5] = tested on: NIH3T3 cells overexpressing calpastatin; assay: MTT cell viability, calpastatin overexpressing cells vs parental line; settings: calpastatin high-expressing cells / parental cell line, 3 to 4 days
Protocol: as §1, §2, §3, §4, §5, §6, §7, §8, §9, §10, §11, §12, §13, §15

[6] = tested on: NIH3T3 cells overexpressing caspase-3; assay: MTT cell viability, caspase-3 overexpressing cells vs parental line; settings: caspase-3 high-expressing cells / parental cell line, 3 to 4 days
Protocol: as §1, §2, §3, §4, §5, §6, §7, §8, §9, §10, §11, §12, §13, §14

[7] = tested on: NIH3T3 cells overexpressing Bax; assay: MTT cell viability, Bax overexpressing cells vs parental line; settings: 3 to 4 days
Protocol: as §1, §2, §3, §4, §5, §6, §7, §8, §9, §10, §11, §12, §13, §14

[8] = tested on: NIH3T3 cells overexpressing N-ras; assay: MTT cell viability, N-ras overexpressing cells vs parental line; settings: N-ras high-expressing cells / parental cell line, 3 to 4 days
Protocol: as §1, §2, §3, §4, §5, §6, §7, §8, §9, §10, §11, §12, §13, §15

[9] = tested on: NIH3T3 cells overexpressing p53(wt); assay: MTT cell viability, p53(wt) overexpressing cells vs parental line; settings: p53(wt) high-expressing cells / parental cell line, 3 to 4 days
Protocol: as §1, §2, §3, §4, §5, §6, §7, §8, §9, §10, §11, §12, §13, §14

[10] = tested on: NIH3T3 cells overexpressing Regucalcin; assay: MTT cell viability, Regucalcin overexpressing cells vs parental line; settings: Regucalcin high-expressing cells / parental cell line, 3 to 4 days
Protocol: as §1, §2, §3, §4, §5, §6, §7, §8, §9, §10, §11, §12, §13, §15

[11] = tested on: NIH3T3 cells overexpressing TK; assay: MTT cell viability, TK overexpressing cells vs parental line; settings: TK high-expressing cells / parental cell line, 3 to 4 days
Protocol: as §1, §2, §3, §4, §5, §6, §7, §8, §9, §10, §11, §12, §13, §15

[12] = tested on: NIH3T3 cells overexpressing PDGF-R-Del; assay: MTT cell viability, PDGF-R-Del overexpressing cells vs parental line; settings: PDGF-R-Del high-expressing cells / parental cell line, 3 to 4 days
Protocol: as §1, §2, §3, §4, §5, §6, §7, §8, §9, §10, §11, §12, §13, §15

[13] = tested on: NIH3T3 cells overexpressing coup; assay: MTT cell viability, coup overexpressing cells vs parental line; settings: coup high-expressing cells / parental cell line, 3 to 4 days
Protocol: as §1, §2, §3, §4, §5, §6, §7, §8, §9, §10, §11, §12, §13, §15

[14] = tested on: NIH3T3 cells overexpressing HSP9O; assay: MTT cell viability, HSP9O overexpressing cells vs parental line; settings: HSP9O high-expressing cells / parental cell line, 3 to 4 days
Protocol: as §1, §2, §3, §4, §5, §6, §7, §8, §9, §10, §11, §12, §13, §15

[15] = tested on: NIH3T3 cells overexpressing cystatin alpha; assay: MTT cell viability, cystatin alpha overexpressing cells vs parental line; settings: cystatin alpha high-expressing cells / parental cell line, 3 to 4 days
Protocol: as §1, §2, §3, §4, §5, §6, §7, §8, §9, §10, §11, §12, §13, §15

[16] = tested on: NIH3T3 cells overexpressing JNK-DN; assay: MTT cell viability, JNK-DN overexpressing cells vs parental line; settings: JNK-DN high-expressing cells / parental cell line, 3 to 4 days
Protocol: as §1, §2, §3, §4, §5, §6, §7, §8, §9, §10, §11, §12, §13, §15

[17] = tested on: NIH3T3 cells overexpressing caspase-2; assay: MTT cell viability, caspase-2 overexpressing cells vs parental line; settings: caspase-2 high-expressing cells / parental cell line, 3 to 4 days
Protocol: as §1, §2, §3, §4, §5, §6, §7, §8, §9, §10, §11, §12, §13, §15

[18] = tested on: NIH3T3 cells overexpressing C/EBPb; assay: MTT cell viability, C/EBPb overexpressing cells vs parental line; settings: C/EBPb high-expressing cells / parental cell line, 3 to 4 days
Protocol: as §1, §2, §3, §4, §5, §6, §7, §8, §9, §10, §11, §12, §13, §14

[19] = tested on: NIH3T3 cells overexpressing C/EBPa; assay: MTT cell viability, C/EBPa overexpressing cells vs parental line; settings: C/EBPa high-expressing cells / parental cell line, 3 to 4 days
Protocol: as §1, §2, §3, §4, §5, §6, §7, §8, §9, §10, §11, §12, §13, §14

[20] = tested on: NIH3T3 cells overexpressing p16/INK4A; assay: MTT cell viability, p16/INK4A overexpressing cells vs parental line; settings: p16/INK4A high-expressing cells / parental cell line, 3 to 4 days
Protocol: as §1, §2, §3, §4, §5, §6, §7, §8, §9, §10, §11, §12, §13, §15

[21] = Bax (first of two Bax lines) high-expressing cells / parental cell line
[22] = Bax (second of two Bax lines) high-expressing cells / parental cell line

| Compound | logarithmic value of ratio of IC40 values [1] | logarithmic value of ratio of IC40 values [2] | logarithmic value of ratio of IC40 values [3] | logarithmic value of ratio of IC40 values [4] | logarithmic value of ratio of IC40 values [5] | logarithmic value of ratio of IC40 values [6] | logarithmic value of ratio of IC40 values [7, 21] | logarithmic value of ratio of IC40 values [7, 22] | logarithmic value of ratio of IC40 values [8] | logarithmic value of ratio of IC40 values [9] | logarithmic value of ratio of IC40 values [10] | logarithmic value of ratio of IC40 values [11] | logarithmic value of ratio of IC40 values [12] | logarithmic value of ratio of IC40 values [13] | logarithmic value of ratio of IC40 values [14] | logarithmic value of ratio of IC40 values [15] | logarithmic value of ratio of IC40 values [16] | logarithmic value of ratio of IC40 values [17] | logarithmic value of ratio of IC40 values [18] | logarithmic value of ratio of IC40 values [19] | also measured |
| --- | --- | --- | --- | --- | --- | --- | --- | --- | --- | --- | --- | --- | --- | --- | --- | --- | --- | --- | --- | --- | --- |
| COC[C@H]1OC(=O)c2coc3c2[C@@]1(C)C1=C(C3=O)[C@@H]2CCC(=O)[C@@]2(C)C[C@H]1OC(C)=O [Wortmannin, wortmannin] | 0.34 | 0.00 | 0.00 | 0.34 | −0.14 | 0.45 | 0.14 | 0.10 | 0.14 | 0.40 | −0.28 | 0.00 | 0.07 | 0.10 | 0.18 | 0.45 | −0.09 | 0.52 | 0.34 | 0.00 | logarithmic value of ratio of IC40 values [20]: 0.30 |
| C/C=C(/C)C(=O)O[C@H]1C(C)=C2[C@H]([C@@H]1OC(=O)CCCCCCC)[C@@](C)(OC(C)=O)C[C@H](OC(=O)CCC)[C@@]1(O)[C@H]2OC(=O)[C@@]1(C)O [Thapsigargin, thapsigargin] | 0.00 | 0.49 | 0.30 | −0.05 | 0.046 | −0.17 | −0.21 | 0.20 | 0.08 | −0.05 | 0.20 | 0.06 | 0.24 | −0.30 | 0.09 | 0.04 | 0.24 | −0.07 | 0.29 | −0.09 | logarithmic value of ratio of IC40 values [20]: −0.64 |
| C=C[C@@]1(C)CC(=O)[C@]2(O)[C@@]3(C)[C@@H](O)CCC(C)(C)[C@@H]3[C@H](O)[C@H](OC(C)=O)[C@@]2(C)O1 [Forskolin, forskolin] | 0.26 | 0.63 | 0.51 | 0.36 | −0.09 | 1.12 | 0.00 | −0.26 | 0.54 | 0.98 | −0.10 | 0.56 | 0.51 | 0.78 | 0.94 | 0.72 | −0.22 | −0.34 | 0.93 | 0.00 | logarithmic value of ratio of IC40 values [20]: 0.70 |
| O=c1c(-c2ccc(O)cc2)coc2cc(O)cc(O)c12 [Genistein, genistein] | −0.35 | 0.78 | 0.10 | 0.00 | 0.127 | 0.04 | 0.20 | 0.38 | 0.42 | 0.26 | 0.00 | 0.08 | 0.33 | 0.44 | 0.41 | 0.28 | −0.10 | 0.30 | 0.19 | −0.43 | logarithmic value of ratio of IC40 values [20]: 0.40 |
| CNc1ccc2oc(C[C@H]3O[C@@]4(CC[C@H]3C)O[C@H]([C@H](C)C(=O)c3ccc[nH]3)[C@H](C)C[C@H]4C)nc2c1C(=O)O [A23187] | −0.28 | 0.26 | 0.31 | 0.06 | −0.12 | 0.28 | 0.00 | −0.09 | 0.20 | 0.30 | 0.03 | 0.00 | 0.15 | −0.12 | 0.28 | 0.26 | −0.08 | 0.48 | 0.25 | 0.00 | logarithmic value of ratio of IC40 values [20]: 0.00 |
